Measured values reported in patent US10370425B2, “Peptide antagonists of the calcitonin CGRP family of peptide hormones and their use” (priority 2012, dated 2019).
Positions of bridges follow the written chain, without caps; N, C: chain ends. Residues, ends and D or L forms follow the SMILES beside them.

Molecular target: T1, amylin receptor, AMY1, a CT (calcitonin) receptor/RAMP1 (receptor-activity modifying protein) complex (Homo sapiens, UniProt O60894+P30988)
T1 construct: host or cells: CHO-K1/AMY1/Gα15
T1 sequence (P30988 25-474): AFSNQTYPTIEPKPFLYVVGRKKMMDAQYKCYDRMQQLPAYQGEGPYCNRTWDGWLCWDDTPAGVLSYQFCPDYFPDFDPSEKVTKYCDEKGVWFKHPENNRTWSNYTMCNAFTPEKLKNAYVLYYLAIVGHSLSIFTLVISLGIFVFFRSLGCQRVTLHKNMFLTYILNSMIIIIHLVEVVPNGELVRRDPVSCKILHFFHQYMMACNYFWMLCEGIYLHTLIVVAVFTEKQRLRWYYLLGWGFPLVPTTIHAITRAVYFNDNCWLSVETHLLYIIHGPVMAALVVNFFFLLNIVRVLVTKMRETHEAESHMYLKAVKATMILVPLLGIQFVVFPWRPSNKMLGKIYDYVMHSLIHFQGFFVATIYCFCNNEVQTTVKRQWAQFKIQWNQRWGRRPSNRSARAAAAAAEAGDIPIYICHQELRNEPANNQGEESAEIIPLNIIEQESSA
T1 sequence (O60894 27-148): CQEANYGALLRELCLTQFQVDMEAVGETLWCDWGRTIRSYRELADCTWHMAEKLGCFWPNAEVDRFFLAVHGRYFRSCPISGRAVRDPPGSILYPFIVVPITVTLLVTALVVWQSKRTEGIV
Test: Calcium flux assay (FLIPR Calcium 4) of inhibition of α-CGRP stimulation in CHO-K1/AMY1/Gα15 cells
Assay type: cell-based
Settings: at maximal test concentration (series starts with 1 μM); CHO-K1/AMY1/Gα15 cells stimulated with 32 nM (EC80) α-CGRP; n = 2; read-out: % Inhibition @ Maximal concentration (Mean +/− SD, n = 2)
Experimental: Using a calcium flux assay, the dose-dependent inhibitory response of peptide antagonists of the present invention on an amylin receptor, AMY1, a CT (calcitonin) receptor/RAMP1 (receptor-activity modifying protein) complex was determined. The recombinant cell line CHO-K1/AMY1/Gα15 (GenScript, Piscataway, N.J., Catalog No. M00475) was employed in the assay. Peptide antagonist activities were tested, in duplicate, at five different concentrations, starting with 1 μM and serially diluted five-fold, in DMSO. AC187 (SEQ ID NO: 55), a known amylin receptor antagonist (available for example from Tocris Bioscience, Minneapolis, Minn., Catalog No. 3419) was used as a positive control in the assays, and human α-CGRP, a known amylin receptor agonist (SEQ ID NO:56) , (available for example from Tocris Bioscience, Minneapolis, Minn., Catalog No. 3012) was used as a positive control in the assays. The FLIPR® Calcium 4 Assay Kit (Molecular Devices, Sunnyvale, Calif.) was used.
Human α-CGRP having the amino acid sequence, NH2-[…]-NH2 (SEQ ID NO:56) and AC187 having the sequence […] (SEQ ID NO: 55) were employed as negative and positive controls, respectively. Stock solutions were further diluted in HBSS-HEPES buffer to make 5×final control solutions.
CHO-K1/AMY1/Gα15 cells were seeded in a 384-well black wall, clear bottom plate at a density of 20,000 cells/well in 20 μL of growth medium 20 hours prior to the day of the experiment and maintained at 37° C./5% CO2.
Per the assay kit protocol, dye-loading solution (at 2×final concentration) was added into the assay plate, 20 μL per well. Compound solution (at 5 ×final concentration) was added into the assay plate, 10 uL per well. The assay plate was placed into a 37° C. incubator for 1 hour, then left for 15 min at RT. The agonist plate (at 5×EC80 concentration) was placed in Source 2. The total reading time was 120 sec. The agonist was added after 20 seconds reading of the baseline and the fluorescence signal was captured for another 100 seconds (21 s to 120 s).
In screening, cells stimulated with assay buffer were chosen as the background; cells stimulated with agonist (at […] concentration) were chosen as the negative control.
Data were recorded by ScreenWorks (version 3.1) as FMD files and stored on the GenScript computer network for off-line analysis. Data acquisition and analyses was performed using ScreenWorks (version 3.1) program and exported to Excel. The average value of 20 (1 s to 20 s) seconds reading was calculated as the baseline reading and the relative fluorescent units (ΔRFU) intensity values were calculated with the maximal fluorescent units (21 s to 120 s) subtracting the average value of baseline reading.
The IC50 value of AC187 was 8 μM. The inhibitory activity of the tested peptide antagonists was normalized with the negative control (AC187) and reported as % Inhibition, calculated from the following equation: % Inhibition=(ΔRFUcompound−ΔRFUBackground)/(ΔRFUNegative control−ΔRFUBackground) * 100% Inhibition was then plotted along the Y-axis, with the test concentrations as indicated on the X-axis. The peptides were tested at indicated concentrations and stimulated with 32 nM (EC80) α-CGRP (Mean +/− SD, n=2).

CC(C)C[C@H](NC(=O)[C@H](CCCNC(=N)N)NC(=O)CNC(=O)[C@H](CC(C)C)NC(=O)[C@@H](NC(=O)[C@@H]1CSSC[C@H](NC(=O)[C@H](C)N)C(=O)N[C@@H](C(C)C)C(=O)N[C@@H](CC(C)C)C(=O)NCC(=O)N[C@@H](C)C(=O)N1)C(C)C)C(=O)N[C@@H](CO)C(=O)N[C@@H](CCC(N)=O)C(=O)N[C@@H](CCC(=O)O)C(=O)N[C@@H](CC(C)C)C(=O)N[C@@H](Cc1c[nH]cn1)C(=O)N[C@@H](CCCNC(=N)N)C(=O)N[C@@H](CC(C)C)C(=O)N[C@@H](CCC(N)=O)C(=O)N[C@H](C(=O)N[C@@H](Cc1ccc(O)cc1)C(=O)N1CCC[C@H]1C(=O)N[C@H](C(=O)N[C@@H](CC(=O)O)C(=O)N1CCC[C@H]1C(=O)N[C@@H](CO)C(=O)N[C@@H](CO)C(=O)N1CCC[C@H]1C(=O)N[C@@H](Cc1c[nH]cn1)C(=O)N[C@@H](CO)C(=O)N[C@@H](Cc1ccc(O)cc1)C(N)=O)C(C)C)[C@@H](C)O [compound 14] (H-ACVLGACVLGRLSQELHRLQTYPVDPSSPHSY-NH2; disulfide 2-7 (inferred))
inhibition at 1 µM: 51.9%
